We go through eleven molecules from US20260055083A1, “APOL1 INHIBITORS AND METHODS OF USE” (Maze Therapeutics, Inc., priority 2022, published 2026).

In general, pEC50 refers to the negative decadic logarithm of the EC50, by convention in mol/L. A word on the AC50: it is the concentration giving half of the maximal activity seen.

Each structure is given as a SMILES string. pEC50: −log10 of the molar value.

Assay [1] concerns the target T1, APOL1 G2 (Homo sapiens, UniProt O14791, DEL388-389).
T1 construct: expressed in transfected cells; host or cells: HEK293/T-REx APOL1 G2 clone #2, doxycycline-inducible
T1 sequence (O14791 with tags, fused parts or gaps DEL388-389): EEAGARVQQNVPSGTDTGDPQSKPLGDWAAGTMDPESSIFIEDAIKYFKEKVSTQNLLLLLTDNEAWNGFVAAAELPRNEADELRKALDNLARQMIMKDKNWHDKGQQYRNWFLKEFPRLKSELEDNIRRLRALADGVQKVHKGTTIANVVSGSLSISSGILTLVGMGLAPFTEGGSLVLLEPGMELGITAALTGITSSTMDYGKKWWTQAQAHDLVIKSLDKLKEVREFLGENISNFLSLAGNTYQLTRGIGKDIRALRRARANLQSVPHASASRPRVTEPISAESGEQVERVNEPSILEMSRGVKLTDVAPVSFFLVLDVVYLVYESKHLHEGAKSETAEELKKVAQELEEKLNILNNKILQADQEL
The experiment in a line: APOL1 G2 HEK293 rescue of cell death caused by overexpression of APOL1 (CellTiter-Glo). In kind it is cell-based. The note with it: HEK293/T-REx APOL1 G2 clone #2, doxycycline induction, 17 hours, CellTiter-Glo luminescence; reversal of cell death; geometric mean of at least 2 assay runs. The protocol: A HEK293 clonal cell line overexpressing APOL1 G2 (HEK293/T-REx APOL1 G2/clone #2) was maintained in 1×DMEM-GlutaMax (Gibco, 10569-010) media with 10% tetracycline-free FBS (Takara Bio USA, 631101), 5 μg/mL Blasticidin (Gibco, A1113903), and 100 μg/mL Zeocin (Invitrogen, R25001) in T75 flasks. In preparation for the assay, this media was aspirated and 2 mL of prewarmed TrypLE Express (Gibco, 12605-010) was added to a flask to detach cells. The flask was then incubated (humidified, 37° C. with 5% CO2) for 3-5 minutes. Afterwards, 8 mL of prewarmed cell assay media (1×DMEM-GlutaMax media with 10% tetracycline-free FBS) was added to the trypsinized cells. The suspension was gently mixed, and cells were counted using a Countess Cell Counting Chamber (Invitrogen). The suspension was diluted using cell assay media to generate a working stock solution (166,667 cells/mL). Using a MultiDrop Combi (Thermo Electron Corp), 30 μL (final cell density=5,000 cells/well) of the working stock solution was dispensed into each well of white 384-well assay ready plates (Nunc™, 164610) containing 6 ng/mL doxycycline, to induce APOL1 expression, and compound. All compounds were plated in a duplicate 8-point dilution series that consisted of 3-fold stepwise dilutions (0.5% DMSO final). Assay plates were incubated (humidified, 37° C. with 5% CO2) for 17 hours. After the incubation, the plates were equilibrated at room temperature for 1 hour. Next, 15 μl of CellTiter-Glo® reagent (Promega, G7570) was added to each well using a MultiDrop Combi. Plates were placed on an orbital shaker (500 rpm) for 5 minutes to induce cell lysis and then incubated at room temperature for 10 minutes. Luminescence was measured on an Envision plate reader. Collaborative Drug Discovery software was utilized for graphing data. Plots were generated using a four parameter logistic curve fit.
Table B2 below provides the results from this experiment. Unless otherwise specified, EC50 values are reported as the geometric mean of at least 2 assay runs on separate days. Each run represents the average of a technical replicate, where each compound was assayed twice in the same plate. A superscript t symbol indicates a value from the average of a technical replicate from a single assay run, where each compound was assayed twice in the same plate. Compounds in Table B2 are referred to by the corresponding Compound Number in Table 1, which is also referred to in the synthetic examples. When one or more of the numbered compounds are identified by stereochemistry (for example, (R)- or (S)-), the specific stereoisomer for which data is provided in Table B2 may be identified by the elution order of such compound as described in the synthetic examples. To illustrate, Compound 2 is the first-eluting enantiomer of step 4 of Example 1 and Compound 3 is the second-eluting enantiomer of step 4 of Example 1. Further, by way of illustration, Compound 27 is the first-eluting enantiomeric mixture in step 4 of Example 7 and Compound 28 is the second-eluting enantiomeric mixture in step 4 of Example 7. Then, Compound 27 is separated into Compound 29 (the first-eluting enantiomer) and Compound 30 (the second-eluting enantiomer) in Example 8, and Compound 28 is separated into Compound 31 (the first-eluting enantiomer) and Compound 32 (the second-eluting enantiomer) in Example 8. Absolute stereochemistry of such compounds may be identified by methods known in the art.
Rescue EC50 values reported in Table B2 below represent the half-maximal effective concentration for reversal of cell death caused by overexpression of APOL1.
On the technique in general: ATP-based viability assays read luminescence as a measure of living cells.

Assay [2] deals with T1, APOL1 G2. Description: APOL1 G2 FLIPR calcium influx assay (HEK T-REx/GCaMP6f/APOL1 G2 K6.3 cells). In kind it is cell-based. To be noted: HEK293 clone expressing GCaMP6f, doxycycline-induced APOL1 G2; prevention of calcium influx; geometric mean of at least 2 assay runs. As to the method: A HEK293 clonal cell line was generated to stably express GCaMP6f, a genetically encoded calcium indicator, and inducibly express APOL1 G2 (HEK T-REx/GCaMP6f/APOL1 G2 K6.3). Cells were maintained in the following standard complete medium: DMEM with 4.5 g/L glucose and sodium pyruvate (BioWhittaker, Lonza, BE12-614F), supplemented with 10% FBS Performance Plus (Gibco, 16000044), 1% penicillin-streptomycin (BioWhittaker, DE17-602E), 2 mM ultraglutamine-1 (BioWhittaker cat. BE 17-605/U1), 50 μg/mL Zeocin (InvivoGen, ant-zn), 2.5 μg/mL Blasticidin (InvivoGen, ant-bl-5), and 25 μg/mL Hygromycin (InvivoGen, ant-hg). Standard propagation conditions consisted of plating 9×10^6, 4×10^6, 2×10^6 cells in a T225 flasks to be processed after 2, 3, or 4 days, respectively.
A source plate was generated containing 20 serially diluted compounds in DMSO (duplicate 8-point dose response). Next, 0.8 μL of compounds were transferred from the source plate to a destination plate prefilled with 79.2 μL of Ca^2+ free Tyrode's buffer (130 mM NaCl, 5 mM KCl, 1 mM MgCl2, 5 mM NaHCO3, 20 mM HEPES at pH 7.4). The destination plate was placed on a plate shaker (5 seconds at 2000 rpm) to mix. […] All transfer and mixing steps were conducted with an CyBi®-Well dispenser.
Cells were split by gently washing with DPBS (Euroclone, ECB4004L), followed by a 5-minute incubation (humidified, 37° C. with 5% CO2) with trypsin-EDTA solution (Euroclone, ECB3052D). Detached cells were diluted with standard complete medium without selective agents, counted, and plated in a 384 MTP microplate (GR4332CPL, Twin Helix) (10,000 cells/well in 25 μl/well) using a MATRIX WellMate dispenser. Plates were placed into a humidified incubator (37° C. with 5% CO2) overnight. The following day, 20 μL of doxycycline (Sigma, D9891) at 20 ng/mL in standard complete medium was added to cells with a CyBi®Drop dispenser to induce APOL1 G2 expression. After a 6-hour incubation (humidified, 37° C. with 5% CO2), cells were washed 3 times with Ca^2+ free Tyrode's Buffer (130 mM NaCl, 5 mM KCl, 1 mM MgCl2, 5 mM NaHCO3, 20 mM HEPES at pH 7.4) using a BIOTEK Microplate washer, such that 10 μL of buffer remained in each well after the final wash. Assay plates were then stored at room temperature for 10 minutes. Next, 10 μL of diluted compounds were transferred to the assay plate from the 2× compound plate using a CyBi®-Well dispenser. Compound incubation was then carried out at room temperature for 10 minutes. The assay plate was transferred to the […] and 20 μL of 10 mM Ca^2+ (final concentration=5 mM) Tyrode's buffer was injected.
Table B1 below summarizes the data from this experiment. Unless otherwise specified, AC50 and values are reported as the geometric mean of at least 2 assay runs on separate days. Each run represents the average of a technical replicate, where each compound was assayed twice in the same plate. A superscript t symbol indicates a value from the average of a technical replicate from a single assay run, where each compound was assayed twice in the same plate.
The AC50 values in Table B1 below reflect the compound's ability to prevent calcium influx by inhibiting APOL1. […] Compounds in Table B1 are referred to by the corresponding Compound Number in Table 1, which is also referred to in the synthetic examples. When one or more of the numbered compounds are identified by stereochemistry (for example, (R)- or (S)-), the specific stereoisomer for which data is provided in Table B1 may be identified by the elution order of such compound as described in the synthetic examples. To illustrate, Compound 2 is the first-eluting enantiomer of step 4 of Example 1 and Compound 3 is the second-eluting enantiomer of step 4 of Example 1. Further, by way of illustration, Compound 27 is the first-eluting enantiomeric mixture in step 4 of Example 7 and Compound 28 is the second-eluting enantiomeric mixture in step 4 of Example 7. […]

Consider `C[C@@H]1CN(C2CCc3ccc(Cl)cc3C2)C[C@H]1COc1ccc(S(C)(=O)=O)cc1` (single isomer, unassigned) [Compound 15, (3S,4S)-1-[(2S or 2R)-7-chloro-1,2,3,4-tetrahydronaphthalen-2-yl]-3-[(4-methanesulfonylphenoxy)methyl]-4-methylpyrrolidine], for which the pEC50 at APOL1 G2 [1] is 5.74. Further, the AC50 on APOL1 G2 [2] was determined as 1750 nM.
In the case of `C[C@@H]1CN(CC(CO)c2cc(Cl)cc(C#N)c2)C[C@H]1COc1ccc(S(C)(=O)=O)cc1` (stereo partly drawn) [Compound 126, 3-chloro-5-(1-hydroxy-3-((3S,4S)-3-methyl-4-((4-(methylsulfonyl)phenoxy)methyl)pyrrolidin-1-yl)propan-2-yl)benzonitrile], the pEC50 on APOL1 G2 [1] is 5.56. In addition, at APOL1 G2 [2], the AC50 was 1740 nM.
In the case of `C[C@@H]1C[C@@H](COc2ccc(S(C)(=O)=O)cc2)CN1CCc1cccc(Cl)c1` [Compound 145, (2R,4R)-1-[2-(3-chlorophenyl)ethyl]-4-[(4-methanesulfonylphenoxy)methyl]-2-methylpyrrolidine], the pEC50 at APOL1 G2 [1] is 5.75. In addition, the AC50 on APOL1 G2 [2] is 1130 nM.
In the case of `C[C@@H]1C[C@H](COc2ccc(S(=O)(=O)CCS(C)(=O)=O)cc2)CN1C1CCc2ccc(Cl)cc2C1` (stereo partly drawn) [Compound 49, (2R,4S)-1-[7-chloro-1,2,3,4-tetrahydronaphthalen-2-yl]-4-{[4-(2-methanesulfonylethanesulfonyl)phenoxy]methyl}-2-methylpyrrolidine], the pEC50 at APOL1 G2 [1] was 6.71. In addition, on APOL1 G2 [2], the AC50 turned out to be 558 nM.
`CS(=O)(=O)c1ccc(OC[C@@H]2CN(CCc3cccc(Cl)c3)C[C@H]2CO)cc1` [Compound 21, [(3S,4S)-1-[2-(3-chlorophenyl)ethyl]-4-[(4-methanesulfonylphenoxy)methyl]pyrrolidin-3-yl]methanol]: on APOL1 G2 [1], the pEC50 was 6.55. Moreover, the concentration at half-maximal activity (AC50) on APOL1 G2 [2] is 138 nM.
In the case of `C[C@@H]1CN(C(CO)Cc2cc(Cl)cc(C#N)c2)C[C@H]1COc1ccc(S(C)(=O)=O)cc1` (single isomer, unassigned) [Compound 122, 3-chloro-5-[(2S or 2R)-3-hydroxy-2-[(3S,4S)-3-[(4-methanesulfonylphenoxy)methyl]-4-methylpyrrolidin-1-yl]propyl]benzonitrile], the pEC50 at APOL1 G2 [1] was 6.10. Moreover, at APOL1 G2 [2], the AC50 is 1110 nM.
The like results for `CS(=O)(=O)C1(c2ccc(OC[C@@H]3CN(CCc4cc(Cl)cc(C#N)c4)CCN3)cc2)CC1` [Compound 110, 3-chloro-5-{2-[(3S)-3-{[4-(1-methanesulfonylcyclopropyl)phenoxy]methyl}piperazin-1-yl]ethyl}benzonitrile] were, in that order, 7.03 and 140 nM.
Consider `C[C@@H]1C[C@H](COc2ccc(S(C)(=O)=O)nc2)CN1CCc1cc(Cl)cc(C#N)c1` [Compound 65, 3-chloro-5-{2-[(2R,4S)-4-{[(6-methanesulfonylpyridin-3-yl)oxy]methyl}-2-methylpyrrolidin-1-yl]ethyl}benzonitrile], for which, at APOL1 G2 [1], the pEC50 is 7.30. On APOL1 G2 [2], the AC50 was 346 nM.
In the case of `CS(=O)(=O)c1ccc(OC[C@H]2CN(CCc3cccc(Cl)c3)C[C@@H]2CO)cc1` [Compound 22, [(3R,4R)-1-[2-(3-chlorophenyl)ethyl]-4-[(4-methanesulfonylphenoxy)methyl]pyrrolidin-3-yl]methanol], the pEC50 on APOL1 G2 [1] is less than 4.73. For the same molecule, the AC50 at APOL1 G2 [2] amounted to 1560 nM.
For `C[C@@H]1CN(CCc2cccc(C#N)c2)C[C@H]1COc1ccc(S(C)(=O)=NCCS(C)(=O)=O)cc1` (single isomer, unassigned) [Compound 70], at APOL1 G2 [1], the pEC50 is 6.47. At APOL1 G2 [2], the AC50 turned out to be 236 nM.
As for `CC(Cc1cc(Cl)cc(C#N)c1)N1C[C@@H](COc2ccc(S(C)(=O)=O)cc2)[C@H](C)C1` (single isomer, unassigned) [Compound 18, 3-chloro-5-[(2S or 2R)-2-[(3S,4S)-3-[(4-methanesulfonylphenoxy)methyl]-4-methylpyrrolidin-1-yl]propyl]benzonitrile], the pEC50 on APOL1 G2 [1] is 6.58. The AC50 on APOL1 G2 [2] worked out at 412 nM.
